Measured values published in PMC8748916, “Microbial enzymes induce colitis by reactivating triclosan in the mouse gastrointestinal tract” (Nature Communications, 2022).
Where “and” joins values, the source holds several entries; their conditions need not be identical. Identical values can stand only once.

Columns and labels:
[1] = test system: enzymes extracted from human fecal samples; experiment: In fimo inhibition assay (TCS-G processing by human fecal extracts); assay type: biochemical; settings: for % Inhibition: Fig. 4d, triplicate
Procedure: Fecal extracts were prepared and proteomic analysis was performed exactly as previously described. In total, 10 g of frozen human fecal sample was thawed and added to 25 mL extraction buffer (25 mM HEPES, 25 mM NaCl pH 6.5 with Roche Complete protease inhibitor tablet) and 0.5 g autoclaved garnet beads. The mixture was vortexed until homogenous and centrifuged at low speed (300 × g for 5 min at 4 °C). The supernatant was decanted. In all, 25 mL buffer was added to the pellet and the vortex and centrifugation steps repeated. The supernatants from these steps were then combined and centrifuged at low speed for two more cycles. The resultant supernatant was sonicated twice using 1 s pulses for 1.5 min and the lysate was centrifuged at 17,000 × g for 20 min in a Beckman Coulter J2-HC centrifuge. The decanted lysate was then washed with several exchanges of extraction buffer to remove metabolites and small molecules. Total protein concentration was quantitated using a Bradford assay. The fecal lysate was diluted to 1 mg/mL concentration and snap-frozen in small aliquots.
Reaction mixtures contained 5 µL fecal extract (0.1 mg/mL final), 10 µL TCS-G (200 µM final), 5 µL GUSi (10, 1, or 0.1 µM final), and 30 µL assay buffer (25 mM HEPES, 25 mM NaCl, pH 6.5). Reactions were quenched at 30 min with 50 µL 25% trichloroacetic acid. Samples were centrifuged 20 min at 16,000 × g in a tabletop centrifuge, and the supernatant was analyzed via the same HPLC method described for the catalytic efficiency assay. Controls contained 5 µL buffer in place of GUSi. Inhibition was calculated using Eq. 1.

[2] = biological target: Eubacterium sp. CAG: 76 GUS (Eubacterium sp. CAG:76, UniProt Z9TO06ZFY0); experiment: In vitro IC50 assay (TCS-G to TCS conversion, HPLC); assay type: biochemical; settings: Fig. 4c, triplicate
Eubacterium sp. CAG: 76 GUS, sequence (Z9TO06ZFY0 1-737): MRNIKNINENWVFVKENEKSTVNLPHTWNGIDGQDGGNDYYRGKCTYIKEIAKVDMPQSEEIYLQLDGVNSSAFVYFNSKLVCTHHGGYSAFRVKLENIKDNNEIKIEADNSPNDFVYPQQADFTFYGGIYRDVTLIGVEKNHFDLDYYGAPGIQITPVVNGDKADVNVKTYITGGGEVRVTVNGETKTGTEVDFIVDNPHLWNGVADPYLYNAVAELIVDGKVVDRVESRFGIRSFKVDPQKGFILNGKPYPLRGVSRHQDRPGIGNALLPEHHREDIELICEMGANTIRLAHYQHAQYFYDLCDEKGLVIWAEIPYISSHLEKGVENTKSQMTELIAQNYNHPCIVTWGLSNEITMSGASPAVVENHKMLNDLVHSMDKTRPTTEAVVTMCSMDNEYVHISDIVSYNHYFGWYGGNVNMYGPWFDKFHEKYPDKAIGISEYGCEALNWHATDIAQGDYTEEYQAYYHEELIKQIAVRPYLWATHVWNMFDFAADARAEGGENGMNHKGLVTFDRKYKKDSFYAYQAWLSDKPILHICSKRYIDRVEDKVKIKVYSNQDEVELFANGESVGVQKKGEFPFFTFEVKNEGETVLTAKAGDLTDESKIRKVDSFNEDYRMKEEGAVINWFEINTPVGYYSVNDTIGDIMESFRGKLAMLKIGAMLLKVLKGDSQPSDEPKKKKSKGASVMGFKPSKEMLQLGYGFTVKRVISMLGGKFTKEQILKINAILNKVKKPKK

C57BL/6 mice = experiment: Effects of GUSi on gut inflammation in mice not stimulated with DSS; assay type: in vivo; set-up: TNF (Fig.S12e) / IL-6 (Fig.S12e) / IL-10 (Fig.S12e) / MCP-1 (Fig.S12e): unit not given here
Caco2 cells = experiment: Cell proliferation assay (MTT); assay type: cell-based, human
Procedure: (§1) Mouse (MC38) or human (Caco2 and HCT-116) intestinal cells were grown in DMEM medium fortified with 10% FBS (EMD Millipore Corporation). The cells were seeded in 96-well plates, then treated with GUSi or vehicle (0.2% v/v DMSO) for 24 h. Cell viability was determined using an MTT assay.
(§2) Fig. S14. GUSi treatment has little effect on the proliferation of mouse or human intestinal cells in vitro.
(§3) Mouse (MC38) or human (Caco2 and HCT-116) intestinal cells were treated with GUSi or vehicle (0.2% v/v
(§4) DMSO) for 24 h, then cell viability was analyzed using a MTT assay. The data are mean ± SEM, n = 5-6 per

HCT-116 cells = experiment: Cell proliferation assay (MTT); assay type: cell-based, human
Procedure: as §1, §2, §3, §4

R. gnavus 3 GUS = R. gnavus 3 GUS (Mediterraneibacter gnavus, UniProt Z9UC37PQH0); experiment: In vitro IC50 assay (TCS-G to TCS conversion, HPLC); assay type: biochemical
R. gnavus 3 GUS, sequence (Z9UC37PQH0 1-754): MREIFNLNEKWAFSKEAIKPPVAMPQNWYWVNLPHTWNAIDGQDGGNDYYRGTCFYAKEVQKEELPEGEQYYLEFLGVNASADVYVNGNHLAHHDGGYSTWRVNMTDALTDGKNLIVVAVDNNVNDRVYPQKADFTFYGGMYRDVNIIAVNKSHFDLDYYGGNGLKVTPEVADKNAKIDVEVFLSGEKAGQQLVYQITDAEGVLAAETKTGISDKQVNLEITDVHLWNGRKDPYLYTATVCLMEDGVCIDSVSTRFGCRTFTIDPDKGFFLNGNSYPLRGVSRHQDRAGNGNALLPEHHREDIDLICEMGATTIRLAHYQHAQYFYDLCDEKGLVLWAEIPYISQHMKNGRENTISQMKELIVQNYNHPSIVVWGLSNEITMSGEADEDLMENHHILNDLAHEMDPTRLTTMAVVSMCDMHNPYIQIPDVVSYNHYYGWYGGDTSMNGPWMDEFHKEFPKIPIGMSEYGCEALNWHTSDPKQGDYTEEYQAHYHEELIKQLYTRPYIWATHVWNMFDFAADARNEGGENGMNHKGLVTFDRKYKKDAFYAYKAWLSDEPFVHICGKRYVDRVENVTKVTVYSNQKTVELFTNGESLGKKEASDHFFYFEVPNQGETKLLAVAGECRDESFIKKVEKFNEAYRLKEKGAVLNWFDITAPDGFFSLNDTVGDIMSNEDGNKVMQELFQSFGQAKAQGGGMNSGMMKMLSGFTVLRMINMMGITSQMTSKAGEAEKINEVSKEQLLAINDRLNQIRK

fecal microbiota = experiment: 16S rRNA sequencing of fecal microbiota of GUSi-treated mice; settings: 1 mg/kg GUSi via oral gavage
E. coli = test system: E. coli; set-up: method as in PMID 30062115; settings: cited from earlier work
[3] = Solubility in water (statement); assay type: physicochemical; settings: authors' reply to reviewers
human fecal bacteria = experiment: Conversion of TCS-G to TCS by anaerobically cultured human fecal bacteria in vitro; assay type: in vitro ADME; settings: from TCS-G, replicates
mouse fecal bacteria = experiment: Conversion of TCS-G to TCS by anaerobically cultured mouse fecal bacteria in vitro; assay type: in vitro ADME; settings: from TCS-G, replicates
[4] = test system: Fp2-L1 GUS mutant proteins; experiment: Catalytic efficiency assay, wild-type and mutant Fp2-L1 GUS; assay type: biochemical, F. prausnitzii; settings: Fig. 3h, replicates 1-3
Rh3 GUS mutants = experiment: Catalytic efficiency assay, wild-type and mutant Rh3 GUS; assay type: biochemical, R. hominis; settings: Fig. 3j, replicates 1-3
[5] = 1 mg/kg GUSi via oral gavage, 3- to 4-week treatment
[6] = cytokine level, individual mice, no DSS
[7] = gene expression, individual mice, no DSS
[8] = 24-h treatment, concentration up to 10 µM
[9] = GUSi 1.23457 uM, Fig. 4c, triplicate
[10] = GUSi 3.7037 uM, Fig. 4c, triplicate
[11] = GUSi 11.1111 uM, Fig. 4c, triplicate
[12] = GUSi 33.3333 uM, Fig. 4c, triplicate
[13] = GUSi 100 uM, Fig. 4c, triplicate

C1CCc2c(c(N3CCOCC3)nc3sc4c(N5CCNCC5)nnnc4c23)C1 [GUSi, UNC10201652]
effect on TCS-G processing by fecal enzyme mixtures ex vivo ([1]; human fecal extracts, GUSi 10, 1 or 0.1 µM): inhibited TCS-G processing
% Inhibition ([1]; human fecal sample F3, 0.1 uM GUSi): 26.0315% and 22.661% and 26.9159%
% Inhibition ([1]; human fecal sample F3, 1 uM GUSi): 55.0638% and 49.4467% and 55.1636%
% Inhibition ([1]; human fecal sample F3, 10 uM GUSi): 63.3658% and 70.4225% and 80.8879%
% Inhibition ([1]; human fecal sample M1, 0.1 uM GUSi): 43.1579% and 25.7515% and 43.5009%
% Inhibition ([1]; human fecal sample M1, 1 uM GUSi): 77.2204% and 69.1166% and 76.6073%
% Inhibition ([1]; human fecal sample M1, 10 uM GUSi): 87.4836% and 92.1188% and 91.6683%
% Inhibition ([1]; human fecal sample M3, 1 uM GUSi): 44.8187% and 47.2169% and 47.9485%
% Inhibition ([1]; human fecal sample M3, 10 uM GUSi): 84.9872% and 79.6161% and 93.8804%
inhibition at 11.1111 µM ([2]; GUSi 11.1111 uM): 57.2%
inhibition at 33.3333 µM ([2]; GUSi 33.3333 uM): 73.6%
inhibition at 100 µM ([2]; GUSi 100 uM): 84.1%
effect on body weight (C57BL/6 mice; [5]): little effects
effect on colon histology (C57BL/6 mice; [5]): little effects
effect on colon length (C57BL/6 mice; [5]): little effects
effect on colonic or systematic inflammation (C57BL/6 mice; [5]): little effects
IFN (Fig.S12e) (C57BL/6 mice; [6]): 0
IL-6 (Fig.S12e) (C57BL/6 mice; [6]): 13.43 and 0 and 6.45
IL-10 (Fig.S12e) (C57BL/6 mice; [6]): 37.4 and 0 and 198.61 and 44.6 and 23.86
IL-12P70 (Fig.S12e) (C57BL/6 mice; [6]): 25.71 and 0 and 88.12
MCP-1 (Fig.S12e) (C57BL/6 mice; [6]): 48.03 and 146.49 and 57.21 and 61.62 and 184.9 and 179.76 and 331.3 and 143.93
TNF (Fig.S12e) (C57BL/6 mice; [6]): 60.3 and 20.04 and 10.87 and 8.58 and 0 and 48.52 and 31.51 and 26.47
ifn (Fig.S12d) (C57BL/6 mice; [7]): 0.5314 and 0.5552 and 0.6727 and 2.025 and 1.546 and 2.975 and 0.7505 and 0.9593
il6 (Fig.S12d) (C57BL/6 mice; [7]): 0.9822 and 0.6373 and 0.485 and 1.527 and 0.9215 and 0.6364 and 1.1212 and 1.239
il17 (Fig.S12d) (C57BL/6 mice; [7]): 1.45 and 0.9375 and 0.5532 and 1.296 and 0.6529 and 0.514 and 0.9732 and 1.7301
il-1b (Fig.S12d) (C57BL/6 mice; [7]): 1.675 and 3.673 and 1.563 and 0.709 and 1.249 and 2.221 and 3.587 and 1.198
il-10 (Fig.S12d) (C57BL/6 mice; [7]): 1.7121 and 1.046 and 0.8638 and 1.378 and 1.892 and 1.921 and 0.8229 and 0.4425
il-23 (Fig.S12d) (C57BL/6 mice; [7]): 1.384 and 0.7725 and 0.7614 and 1.398 and 2.3746 and 0.7478 and 0.414 and 0.4606
mcp1 (Fig.S12d) (C57BL/6 mice; [7]): 1.246 and 0.6949 and 0.7972 and 1.205 and 1.387 and 0.8717 and 0.5743 and 0.5267
tlr-4 (Fig.S12d) (C57BL/6 mice; [7]): 1.193 and 1.155 and 1.078 and 1.23 and 1.258 and 1.02 and 0.5994 and 0.6478
tnf (Fig.S12d) (C57BL/6 mice; [7]): 0.9505 and 1.516 and 0.4248 and 0.7567 and 1.942 and 2.3131 and 2.563 and 2.05
effect on cell growth (MTT) (Caco2 cells; [8]): little effect
Cell proliferation (Fig. S14) (Caco2 cells; Caco2, concentration 1, replicates): 98.3792 and 85.2575 and 104.44 and 99.0453 and 92.8508 and 100.244
Cell proliferation (Fig. S14) (Caco2 cells; Caco2, concentration 2, replicates): 86.1234 and 96.6474 and 97.7798 and 94.9156 and 100.844
Cell proliferation (Fig. S14) (Caco2 cells; Caco2, concentration 5, replicates): 95.1821 and 92.3845 and 92.5844 and 91.9849 and 82.46 and 86.0568
Cell proliferation (Fig. S14) (Caco2 cells; Caco2, concentration 10, replicates): 85.1243 and 87.6554 and 72.6021 and 79.7957 and 82.3268 and 62.0782
effect on cell growth (MTT) (HCT-116 cells; [8]): little effect
Cell proliferation (Fig. S14) (HCT-116 cells; HCT 116, concentration 1, replicates): 91.3142 and 95.487 and 92.4485 and 104.886 and 100.024
Cell proliferation (Fig. S14) (HCT-116 cells; HCT 116, concentration 2, replicates): 98.4038 and 88.5189 and 93.2993 and 86.1692 and 98.1202 and 99.3761
Cell proliferation (Fig. S14) (HCT-116 cells; HCT 116, concentration 5, replicates): 113.11 and 102.536 and 95.2844 and 92.408 and 101.807 and 114.082
Cell proliferation (Fig. S14) (HCT-116 cells; HCT 116, concentration 10, replicates): 87.263 and 108.329 and 83.941 and 79.8088 and 79.1606 and 114.487
R. gnavus 3 GUS % inhibition (R. gnavus 3 GUS; GUSi 0.0457247 uM, Fig. 4c, triplicate): -1.753% and -3.75% and 4.591%
R. gnavus 3 GUS % inhibition (R. gnavus 3 GUS; GUSi 0.137174 uM, Fig. 4c, triplicate): 0.1348% and -1.9775% and 2.5447%
R. gnavus 3 GUS % inhibition (R. gnavus 3 GUS; [9]): 15.6836% and 27.3384%
inhibition at 1.23457 µM (R. gnavus 3 GUS; [9]): 17.8%
R. gnavus 3 GUS % inhibition (R. gnavus 3 GUS; [10]): 45.7722% and 58.3391%
inhibition at 3.7037 µM (R. gnavus 3 GUS; [10]): 46.7%
R. gnavus 3 GUS % inhibition (R. gnavus 3 GUS; [11]): 62.2571% and 74.9484%
inhibition at 11.1111 µM (R. gnavus 3 GUS; [11]): 64.9%
R. gnavus 3 GUS % inhibition (R. gnavus 3 GUS; [12]): 76.969% and 90.9388%
inhibition at 33.3333 µM (R. gnavus 3 GUS; [12]): 79.3%
R. gnavus 3 GUS % inhibition (R. gnavus 3 GUS; [13]): 87.2656% and 101.29%
inhibition at 100 µM (R. gnavus 3 GUS; [13]): 89.5%
IC50 (R. gnavus 3 GUS; conversion of TCS-G (200 µM) to TCS, FMN-binding GUS): 3.7 ± 0.5 µM
effect on the diversity or composition of fecal microbiota (fecal microbiota): little effect
effect on growth of E. coli (E. coli): no effect
solubility in water [3]: poorly solubilized

Oc1cc(Cl)ccc1Oc1ccc(Cl)cc1Cl [TCS, Triclosan]
TCS formed (human fecal bacteria): 10.13 pmol and 12.20 pmol and 15.57 pmol
TCS formed (mouse fecal bacteria): 17.00 pmol and 16.49 pmol and 18.41 pmol

O=C(O)C1OC(Oc2cc(Cl)ccc2Oc2ccc(Cl)cc2Cl)C(O)C(O)C1O (stereo not drawn) [TCS-G, triclosan-glucuronide]
Catalytic efficiency ([4]; Enzyme: Fp 2-L1 M362A): 344000 M⁻¹ s⁻¹ and 207500 M⁻¹ s⁻¹ and 364600 M⁻¹ s⁻¹
Catalytic efficiency ([4]; Enzyme: Fp 2-L1 M454A): 1202500 M⁻¹ s⁻¹ and 1255200 M⁻¹ s⁻¹ and 1243800 M⁻¹ s⁻¹
Catalytic efficiency ([4]; Enzyme: Fp 2-L1 M455A): 1203800 M⁻¹ s⁻¹ and 1137600 M⁻¹ s⁻¹ and 1168500 M⁻¹ s⁻¹
Catalytic efficiency ([4]; Enzyme: Fp 2-L1 Y479A): 0 M⁻¹ s⁻¹
Catalytic efficiency (Rh3 GUS mutants; Enzyme: Rh3 F406A): 147440 M⁻¹ s⁻¹ and 148640 M⁻¹ s⁻¹ and 151680 M⁻¹ s⁻¹
Catalytic efficiency (Rh3 GUS mutants; Enzyme: Rh3 L635STOP): 0 M⁻¹ s⁻¹
Catalytic efficiency (Rh3 GUS mutants; Enzyme: Rh3 Y430A): 0 M⁻¹ s⁻¹
